Measurements as given in patent publication US12084522B2, “Peptides, combination of peptides, and cell based medicaments for use in immunotherapy against urinary bladder cancer and other cancers” (Immatics Biotechnologies GmbH, priority 2016, dated 2024).

Experiments:
HLA-A*02:01 = HLA-A*02:01 (Homo sapiens, UniProt P04439, D140Y/D185E/D98H/E176V/E277Q/G131W/G231S/I119V/I121R/I166T/I218V/L300P/L318F/N151K/N90K/P208A/P217A/Q86G/Q94H/R138H/R169H/T345S); experiment: MHC binding assay (UV-ligand exchange, β2m ELISA, peptide exchange yield); details: binding to HLA-A*02:01 ranged by peptide exchange yield (UV-ligand exchange, β2m ELISA)
Text: Candidate peptides for T cell based therapies according to the present invention were further tested for their MHC binding capacity (affinity). The individual peptide-MHC complexes were produced by UV-ligand exchange, where a UV-sensitive peptide is cleaved upon UV-irradiation, and exchanged with the peptide of interest as analyzed. Only peptide candidates that can effectively bind and stabilize the peptide-receptive MHC molecules prevent dissociation of the MHC complexes. To determine the yield of the exchange reaction, an ELISA was performed based on the detection of the light chain (β2 m) of stabilized MHC complexes. The assay was performed as generally described in Rodenko et al. (Rodenko et al., 2006).
96 well MAXISorp plates (NUNC) were coated over night with 2 μg/ml streptavidin in PBS at room temperature, washed 4× and blocked forth at 37° C. in 2% BSA containing blocking buffer. Refolded HLA-A*02:01/MLA-001 monomers served as standards, covering the range of 15-500 ng/ml. Peptide-MHC monomers of the UV-exchange reaction were diluted 100 fold in blocking buffer. Samples were incubated for 1 h at 37° C., washed four times, incubated with 2 ug/ml HRP conjugated anti-β2 m for 1 h at 37° C., washed again and detected with TMB solution that is stopped with […]. Absorption was measured at 450 nm. Candidate peptides that show a high exchange yield (preferably higher than 50%, most preferred higher than 75%) are generally preferred for a generation and production of antibodies or fragments thereof, and/or T cell receptors or fragments thereof, as they show sufficient avidity to the MHC molecules and prevent dissociation of the MHC complexes.

[1] = tested on: CD8+ T cells from healthy HLA-A*02 donors; experiment: In vitro immunogenicity: priming of CD8+ T cells with aAPCs loaded with peptide/MHC complexes and anti-CD28, pMHC multimer readout; type: cell-based, human; details: for Wells positive [%]: HLA-A*02 restricted peptides, positive wells among evaluable, Table 10B; for Wells (in vitro immunogenicity, positive wells): HLA class I peptides, Table 10A
Text: In order to obtain information regarding the immunogenicity of the TUMAPs of the present invention, the inventors performed investigations using an in vitro T-cell priming assay based on repeated stimulations of CD8+ T cells with artificial antigen presenting cells (aAPCs) loaded with peptide/MHC complexes and anti-CD28 antibody.
In order to perform in vitro stimulations by artificial antigen presenting cells loaded with peptide-MHC complex (pMHC) and anti-CD28 antibody, the inventors first isolated CD8+ T cells from fresh HLA-A*02 leukapheresis products via positive selection using CD8 microbeads (Miltenyi Biotec, Bergisch-Gladbach, Germany) of healthy donors obtained from the University clinics Mannheim, Germany, after informed consent.
PBMCs and isolated CD8+ lymphocytes were incubated in T-cell medium (TCM) until use consisting of RPMI-Glutamax (Invitrogen, Karlsruhe, Germany) supplemented with 10% heat inactivated human AB serum (PAN-Biotech, Aidenbach, Germany), 100 U/ml Penicillin/100 μg/ml Streptomycin (Cambrex, Cologne, Germany), 1 mM sodium pyruvate (CC Pro, Oberdorla, Germany), 20 μg/ml Gentamycin (Cambrex). 2.5 ng/ml IL-7 (PromoCell, Heidelberg, Germany) and 10 U/ml IL-2 (Novartis Pharma, Nürnberg, Germany) were also added to the TCM at this step.
Generation of pMHC/anti-CD28 coated beads, T-cell stimulations and readout was performed in a highly defined in vitro system using four different pMHC molecules per stimulation condition and 8 different pMHC molecules per readout condition.
The purified co-stimulatory mouse IgG2a anti human CD28 Ab 9.3 (Jung et al., 1987) was chemically biotinylated using Sulfo-N-hydroxysuccinimidobiotin as recommended by the manufacturer (Perbio, Bonn, Germany). Beads used were 5.6 μm diameter streptavidin coated polystyrene particles (Bangs Laboratories, Illinois, USA).
800.000 beads/200 μl were coated in 96-well plates in the presence of 4×12.5 ng different biotin-pMHC, washed and 600 ng biotin anti-CD28 were added subsequently in a volume of 200 μl. Stimulations were initiated in 96-well plates by co-incubating 1×10^6 CD8+ T cells with 2×10^5 washed coated beads in 200 μl TCM supplemented with 5 ng/ml IL-12 (PromoCell) for 3 days at 37° C. Half of the medium was then exchanged by fresh TCM supplemented with 80 U/ml IL-2 and incubating was continued for 4 days at 37° C. This stimulation cycle was performed for a total of three times. For the pMHC multimer readout using 8 different pMHC molecules per condition, a two-dimensional combinatorial coding approach was used as previously described (Andersen et al., 2012) with minor modifications encompassing coupling to 5 different fluorochromes. Finally, multimeric analyses were performed by staining the cells with Live/dead near IR dye (Invitrogen, Karlsruhe, Germany), CD8-FITC antibody clone SK1 (BD, Heidelberg, Germany) and fluorescent pMHC multimers. For analysis, a BD LSRII SORP cytometer equipped with appropriate lasers and filters was used. Peptide specific cells were calculated as percentage of total CD8+ cells. Evaluation of multimeric analysis was done using the FlowJo software (Tree Star, Oregon, USA). In vitro priming of specific multimer+CD8+ lymphocytes was detected by comparing to negative control stimulations.

Substance	Peptide exchange (HLA-A*02:01)	Wells positive [%] [1]	Wells (in vitro immunogenicity, positive wells) [1]
14 (GLAGPVRGV; listed as Homo sapiens) [compound 14]	+++ (>50 = +++)	+ (<20% = +)	
155 (VLSSGLTAA; listed as Homo sapiens) [compound 155]			+ (<20% = +)
164 (ALADLTGTVV; listed as Homo sapiens) [compound 164]			+ (<20% = +)
53 (ILVQVIPVV; listed as Homo sapiens) [compound 53]	+++ (>50 = +++)	++ (20%-49% = ++)	
173 (FVFSFPVSV; listed as Homo sapiens) [compound 173]			++ (20%-49% = ++)
24 (SLLGGITVV; listed as Homo sapiens) [compound 24]	++++ (>75% = ++++)	++ (20%-49% = ++)	
177 (NLLQVLEKV; listed as Homo sapiens) [compound 177]			+ (<20% = +)
204 (GVYDGEEHSV; listed as Homo sapiens) [compound 204]			+ (<20% = +)
184 (LMTKEISSV; listed as Homo sapiens) [compound 184]			+ (<20% = +)
111 (LLDVTPKAV; listed as Homo sapiens) [compound 111]	+++ (>50 = +++)	+++ (50%-69% = +++)	
182 (YLAPFLRNV; listed as Homo sapiens) [compound 182]			++ (20%-49% = ++)
186 (VLYPHEPTAV; listed as Homo sapiens) [compound 186]			+ (<20% = +)
160 (SLLGGNIRL; listed as Homo sapiens) [compound 160]			++ (20%-49% = ++)
5 (IQDPVIFYV; listed as Homo sapiens) [compound 5]	++++ (>75% = ++++)	+++ (50%-69% = +++)	
126 (SLLRVGWSV; listed as Homo sapiens) [compound 126]	++++ (>75% = ++++)	++ (20%-49% = ++)	
4 (SLDVVNLLV; listed as Homo sapiens) [compound 4]	++++ (>75% = ++++)	+ (<20% = +)	
168 (LTAPPEALLMV; listed as Homo sapiens) [compound 168]			+ (<20% = +)
27 (STTNGGILTV; listed as Homo sapiens) [compound 27]	+++ (>50 = +++)	+ (<20% = +)	
148 (TLGVIPESV; listed as Homo sapiens) [compound 148]	++++ (>75% = ++++)	+ (<20% = +)	
156 (KLVEFDFLGA; listed as Homo sapiens) [compound 156]			+ (<20% = +)
30 (ILDISRSEV; listed as Homo sapiens) [compound 30]	+++ (>50 = +++)	++++ (>=70% = ++++)	
23 (YTLSKTEFL; listed as Homo sapiens) [compound 23]	++++ (>75% = ++++)	+ (<20% = +)	
16 (ILGPQGNTI; listed as Homo sapiens) [compound 16]	+++ (>50 = +++)	+ (<20% = +)	

Substance	Peptide exchange (HLA-A*02:01)	Wells positive [%] [1]	Wells (in vitro immunogenicity, positive wells) [1]
170 (GLIEIISNA; listed as Homo sapiens) [compound 170]			+ (<20% = +)
17 (RLSQLEGVNV; listed as Homo sapiens) [compound 17]	+++ (>50 = +++)	+ (<20% = +)	
189 (ALLRTVVSV; listed as Homo sapiens) [compound 189]			+ (<20% = +)
193 (ALVQDLAKA; listed as Homo sapiens) [compound 193]			++ (20%-49% = ++)
59 (WLSTSIPEA; listed as Homo sapiens) [compound 59]	++++ (>75% = ++++)	+ (<20% = +)	
50 (VLANRVAVV; listed as Homo sapiens) [compound 50]	+++ (>50 = +++)	++++ (>=70% = ++++)	
162 (TLLAAEFLKQV; listed as Homo sapiens) [compound 162]			+ (<20% = +)
146 (YLARIQGFQV; listed as Homo sapiens) [compound 146]	++++ (>75% = ++++)	++ (20%-49% = ++)	
172 (LLYGHTVTV; listed as Homo sapiens) [compound 172]			++ (20%-49% = ++)
6 (SIVDFLITA; listed as Homo sapiens) [compound 6]	+++ (>50 = +++)	+ (<20% = +)	
41 (FLDDGNQMLL; listed as Homo sapiens) [compound 41]	++++ (>75% = ++++)	+ (<20% = +)	
167 (SLWGGDVVL; listed as Homo sapiens) [compound 167]			++ (20%-49% = ++)
192 (ALNPADITV; listed as Homo sapiens) [compound 192]			++ (20%-49% = ++)
198 (NLIEKSIYL; listed as Homo sapiens) [compound 198]			+ (<20% = +)
203 (FLIPYAIML; listed as Homo sapiens) [compound 203]			+ (<20% = +)
114 (IITKDLFQV; listed as Homo sapiens) [compound 114]	+++ (>50 = +++)	+ (<20% = +)	
57 (GLAHFVNEI; listed as Homo sapiens) [compound 57]	++++ (>75% = ++++)	+ (<20% = +)	
205 (KIVDFSYSV; listed as Homo sapiens) [compound 205]			++ (20%-49% = ++)
176 (SMSGYDQVL; listed as Homo sapiens) [compound 176]			+ (<20% = +)
178 (ALNEEAGRLLL; listed as Homo sapiens) [compound 178]			+ (<20% = +)
159 (SLIEDLILL; listed as Homo sapiens) [compound 159]			+ (<20% = +)
200 (YLNVQVKEL; listed as Homo sapiens) [compound 200]			+ (<20% = +)
